According to US8933101B2, “Thia(dia)zoles as fast dissociating dopamine 2 receptor antagonists” (Janssen Pharmaceutica NV, priority 2007, dated 2015):
Where a name gives a salt, the structure may show the parent alone.

Structure (SMILES) | melting point [°C]
FC(F)(F)Oc1cccc(CN2CCC(Nc3nnc(C(F)(F)F)s3)CC2)c1 | 116.3
N#Cc1nnc(NC2CCN(Cc3cc(F)c(F)c(F)c3)CC2)s1 | 211.3
Fc1cc(CN2CCC(Nc3nnc(C(F)(F)F)s3)CC2)ccc1C(F)(F)F | 130.2
CN(c1nnc(C(F)(F)F)s1)C1CCN(Cc2cccc(F)c2)CC1 | 80.5
CN(c1nnc(C(F)(F)F)s1)C1CCN(Cc2ccc(F)cc2)CC1 | 85.8
N#Cc1nnc(NC2CCN(Cc3ccc(F)c(F)c3)CC2)s1 | 199.4
Fc1ccc(CN2CCC(Nc3nc(C(F)(F)F)cs3)CC2)cc1F (as salt: hydrochloride) | 238
